Source: ChEMBL document CHEMBL5604062, “ASAP - ZIKV NS2B-NS3 protease fluorescence dose response” (2024)
“And” between values parts separate entries of the source, which are not always exact repeats. Identical values can stand only once.

What follows are compounds tested against Nonstructural protein 3 (Zika virus, UniProt A0A024AXB9) (assay: Functional biochemical assay to identify treatments for viral infectious disease that targets Zika NS2B-NS3 protease. Utilizing a direct enzyme activity measurement method, reading the fluorescence intensity is used to characterize the relative potency of inhibitors as IC50.).
Parameters: species or system PRVABC59

Sequence of Nonstructural protein 3 (A0A024AXB9 whole entry): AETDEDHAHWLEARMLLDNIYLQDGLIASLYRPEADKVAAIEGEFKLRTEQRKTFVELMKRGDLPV

Compound | IC50
Cc1ccc([C@@H](NC(=O)OCc2ccccc2)C(=O)Nc2cccc(CN)c2)cc1C | > 99.5 µM
NCc1cccc(NC(=O)[C@@H](NC(=O)OCc2ccccc2)c2ccc(-c3ccccc3F)cc2)c1 | 8.51 µM
C[C@]1(C(=O)N[C@H](C(=O)Nc2cccc(CN)c2)c2ccc(OCc3ccccc3)cc2)COc2ccccc2O1 | 17.2 µM
Cc1cc(-c2ccc3[nH]c(C(=O)O)cc3c2)c2cc[nH]c(=O)c2c1 | > 99.5 µM
FC(F)(F)c1nnc(COc2cncnc2)s1 | > 99.5 µM
NCc1cccc(NC(=O)c2cc(Cl)cc3c2OCCNC3)c1 | 45.2 µM
Fc1cc(F)c2[nH]cc(CN3CCC(c4cscn4)CC3)c2c1F | > 99.5 µM
Cc1cc(C(=O)Nc2cc(-c3cccnc3)ccn2)c(C)n1C | > 25 µM
O=C(Nc1ccc2c(c1)CNC2)c1ccc2c(C3=CCNCC3)csc2c1 | 0.5 µM and 0.54 µM
Cn1ccnc1C(=O)N1CCC([C@H](NC(=O)OCc2ccccc2)C(=O)Nc2cccc(CN)c2)CC1 | > 99.5 µM
COc1cc(Cl)cc(C(=O)Nc2ccc3c(c2)CNC3)c1 | 0.26 µM
CC[C@H](Cc1nnn[nH]1)c1ccc(NC(=O)c2cc(Cl)cc(SC)c2)cc1 | > 99.5 µM
O=C(NC[C@H]1CCCO1)[C@H](Nc1ccc2c(c1)CNC2)c1cc(Cl)cc2[nH]ncc12 | 0.111 µM
CC(C)(CO)CN1CC[C@H](c2c[nH]c3ccccc23)C1 | > 99.5 µM
CCCC(=O)Nc1cc(Cl)cc(C(=O)Nc2cccc(CN)c2)c1 | 4.37 µM
O=C(Nc1ccc2c(c1)CNC2)c1cccc2nc(C(F)(F)F)[nH]c12 | 4.03 µM
NCc1cccc(NC(=O)C[C@@H](NC(=O)OCc2ccccc2)C2CCCCC2)c1 | > 99.5 µM and 56.7 µM
O=C(Nc1ccc2c(c1)CNC2)c1ccncc1 | > 99.5 µM
O=C1Cc2c(cc(F)cc2C(=O)Nc2ccc3c(c2)CNC3)N1 | 0.026 µM and 0.014 µM
CCn1ncc2c(C(=O)Nc3cccc(CN)c3)cc(C)nc21 | > 99.5 µM
Cn1cc(C(=O)N[C@@H](C(=O)Nc2cccc(CN)c2)c2ccc(OCc3ccccc3)cc2)cn1 | > 99.5 µM
CCn1cc(-c2ccc(C(F)F)nc2)nc(N2CC[C@@H](CO)C2)c1=O | > 99.5 µM
O=C1COc2cc(C(=O)Nc3ccc4c(c3)CNC4)ccc2N1 | 6.14 µM
N#Cc1cccc(-c2nc3c(C(=O)Nc4ccc5c(c4)CNC5)cc(F)cc3[nH]2)c1 | 33 nM (2×) and 13 nM

Compound | IC50
NCc1cccc(NC(=O)[C@@H](NC(=O)OCc2ccccc2)c2ccc(F)cc2F)c1 | > 99.5 µM
Clc1ccc2nc(C3CCOCC3)n(Cc3ccc4c(c3)CNC4)c2c1 | > 99.5 µM
Cc1c(C(=O)Nc2cc(C#N)c3ccccc3n2)cc(C2CC2)n1C | > 99.5 µM
NCc1cccc(Oc2ccc(S(=O)(=O)Nc3ccc(Cl)cc3C(=O)NCC(F)(F)F)cc2)c1 | > 99.5 µM
c1cnc2c(C3CCN(Cc4c[nH]c5ncccc45)CC3)c[nH]c2c1 | > 99.5 µM
c1ccc2c(CN3CCCCC3)c[nH]c2c1 | > 99.5 µM
CC(C)c1ccc([C@@H](NC(=O)OCc2ccccc2)C(=O)Nc2cccc(CN)c2)cc1 | 87.7 µM
NCc1cccc(NC(=O)c2cc(NC(=O)OCc3ccccc3)cc(C(N)=O)c2)c1 | > 99.5 µM
O=Cc1ccc(N2CCC(C(=O)NC[C@H](O)c3ccc(O)c(O)c3)CC2)cc1 | > 12.7 µM
CCn1c(=O)c(N2CC[C@H](c3ccccc3)C2)nc2ccccc21 | > 99.5 µM
O=C(Nc1ccc2c(c1)CNC2)c1ccnc(CO)c1 | > 99.5 µM
O=C(Nc1ccc2c(c1)CNC2)N1CCC[C@H](Cc2nccs2)C1 | > 25 µM
OCCOc1cc(COc2cccnc2F)nc(N2CCNCC2)n1 | > 99.5 µM
N=C(N)NCCc1ccc(NC(=O)C(=O)c2ccccc2)cc1 | > 198 µM
O=C(Nc1cc(Cl)cc(C(=O)Nc2ccc(CC3CCNCC3)cc2)c1)OCc1ccccc1 | 5.23 µM
Cc1cc(NC(=O)c2cc(Cl)cc3[nH]ncc23)ccc1N1CCNCC1 | 6.48 µM
C[C@@H](Oc1ccc(S(=O)(=O)Nc2ccc(Cl)cc2C(=O)O)cc1)c1ccccc1F | 25.1 µM
N#Cc1cccc(N2CCN(Cc3c[nH]c4ccccc34)CC2)c1 | 85.6 µM
COCCOc1ccc(Cl)cc1C(=O)Nc1ccc2c(c1)CNC2 | 3.06 µM
CCn1c(=O)c(N2C[C@H]3C[C@H]2C(F)(F)C3)nc2ccccc21 | > 99.5 µM
c1ccc(C2CCN(Cc3c[nH]c4ccccc34)CC2)nc1 | 34.7 µM
CS(=O)(=O)NCc1ccc(CNC(=O)[C@@H](NC(=O)OCc2ccccc2)c2ccc(OCc3ccccc3)cc2)cc1 | > 99.5 µM
COc1cc(C(=O)O)c(S(=O)(=O)Nc2ccc(Oc3ccccc3Cl)cc2)cc1F | 91.6 µM
NCc1ccc(NC(=O)c2cc(Cl)cc(NC(=O)OCc3ccccc3)c2)cc1 | 10.3 µM

Compound | IC50
CCCOc1ccc([C@@H](CC(=O)Nc2cccc(CN)c2)NC(=O)OCc2ccccc2)cc1 | > 99.5 µM and 66.2 µM
CCCn1ncc2c(C(=O)Nc3ccc4c(c3)CNC4)cc(Cl)cc21 | 0.188 µM
c1ccc(CC2CCN(Cc3c[nH]c4ccccc34)CC2)cc1 | 89.6 µM
Cc1nccn1-c1ccc(Cl)cc1C(=O)Nc1cccc(CN)c1 | > 99.5 µM
O=C1CCc2c(cc(Cl)cc2-c2ccc3[nH]c(C(=O)O)cc3c2)N1 | > 99.5 µM
Cc1nc2cc(Cl)ccc2cc1C(=O)Nc1ccc2c(c1)CNC2 | > 25 µM
Cc1cc(C(=O)O)c(NS(=O)(=O)c2ccc(Oc3ccccc3)cc2)cc1F | 68.5 µM
O=C1C[C@H]2[C@H](CCCN2C(=O)Nc2ccc3c(c2)CNC3)N1 | > 25 µM
O=C(O)c1cc(Cl)ccc1S(=O)(=O)Nc1ccc(N2CCCCCC2)cc1 | > 99.5 µM
N#Cc1cc(CN)cc([C@H]2C[C@@H]2c2cc(Cl)cc(NC(=O)OCc3ccccc3)c2)c1 | > 99.5 µM
COc1cc(NS(=O)(=O)c2ccc(Oc3ccccc3Cl)cc2)c(C(=O)O)cc1Cl | 16.3 µM
NCc1cccc(NC(=O)[C@H]2CCc3nnc(-c4ccc(F)cc4)n3C2)c1 | > 99.5 µM
CCc1ccccc1-c1ccc([C@@H](NC(=O)OCc2ccccc2)C(=O)Nc2cccc(CN)c2)cc1 | 5.83 µM
Cc1ccc(Sc2ncccc2C(=O)Nc2cccc(CN)c2)cc1C | > 99.5 µM
O=C(O)c1cc(Cl)ccc1S(=O)(=O)Nc1ccc(N2CCCCC2)c(Cl)c1 | > 99.5 µM
NCc1cccc(NC(=O)[C@H](NC(=O)OCc2ccccc2)C2CCNCC2)c1 | > 99.5 µM
c1cc(CN2CCC(c3c[nH]c4cccnc34)CC2)c2cn[nH]c2c1 | > 99.5 µM
NCc1cccc(NC(=O)c2cc(Cl)ccc2NS(=O)(=O)c2ccc(Oc3ccccc3Cl)cc2)c1 | > 99.5 µM
C=CC[C@H]1NCc2cc(NC(=O)c3ccc4c(c3)CC(=O)N4)ccc21 | > 25 µM
COCc1cc(Cl)cc(C(=O)Nc2ccc3c(c2)CNC3)c1 | 0.785 µM
c1ccc(COc2ccc3c(CN4CCC(c5cscn5)CC4)c[nH]c3c2)cc1 | > 99.5 µM
NCc1cccc(NC(=O)c2cc(C(F)(F)F)nn2CC2CCC2)c1 | > 99.5 µM
NC[C@H]1CC[C@H](NC(=O)c2cc(Cl)cc(NC(=O)OCc3ccccc3)c2)CC1 | > 99.5 µM

The remaining lines, values ahead:

IC50 | Compound
> 99.5 µM | O=C(Nc1cc(Cl)cc(C(=O)Nc2cccc(CN3CCCC3=O)c2)c1)OCc1ccccc1
> 99.5 µM | CC(C)c1nc2cc(Cl)ccc2n1Cc1ccc(-c2nn[nH]n2)cc1
2.97 µM | N[C@H]1CCCc2ccc(NC(=O)c3cc(Cl)cc4[nH]ncc34)cc21
> 99.5 µM | CCc1cc(F)ccc1CC(=O)N1CCCc2cc(CCN)ccc21
> 99.5 µM | NCc1cccc(NC(=O)[C@@H](NC(=O)OCc2ccccc2)c2ccc(OC[C@H]3CCS(=O)(=O)C3)cc2)c1
6.17 µM | CCNC(=O)Nc1cc(Cl)cc(C(=O)Nc2cc(CCCN)ccc2F)c1
> 99.5 µM | N#Cc1cc(-c2ccc3[nH]c(C(=O)O)cc3c2)c2nc[nH]c2c1
> 99.5 µM | NC[C@H]1C[C@@H](NC(=O)c2cc(Cl)ccc2NS(=O)(=O)c2ccc(Oc3ccccc3Cl)cc2)C1
> 99.5 µM | CSc1cc(Cl)cc(C(=O)Nc2cccc(-n3nn[nH]c3=O)c2)c1
> 99.5 µM | CN(c1ccc(Oc2ccccc2Cl)cc1)S(=O)(=O)c1cc(F)c(Cl)cc1C(=O)O
76.3 µM | O=C(NCC1CC1)c1cc(Cl)ccc1NS(=O)(=O)c1ccc(Oc2ccccc2Cl)cc1
90 µM | NCc1cccc(NC(=O)[C@@H](NC(=O)OCc2ccccc2)c2ccc(OCc3ccncc3)cc2)c1
> 99.5 µM | COC(=O)[C@]12CC[C@](C(=O)Nc3cccc(CN)c3)(COC1)C2
> 25 µM | Cc1c(C(=O)Nc2cc(-c3cccnc3)ccn2)cc(-c2ccccc2)n1C
> 100 µM | O=C(Nc1ccccc1)OCc1ccccc1 [BENZYL PHENYLCARBAMATE]
> 99.5 µM | O=C(N[C@@H](C(=O)NCc1cccc(CN2CCCCC2)c1)c1ccc(OCc2ccccc2)cc1)OCc1ccccc1
16.6 µM | O=C(Nc1ccc2c(c1)CNC2)c1cccnc1

IC50 | Compound
> 99.5 µM | CCn1ccnc(N2CC[C@H](c3ccncc3)C2)c1=O
> 99.5 µM | CC1(NS(=O)(=O)c2ccc(Cl)cc2C(=O)O)CCN(c2ccccc2)CC1
> 25 µM | C#C[C@H](Nc1ccc2c(c1)CNC2)c1cccc2c1CCNC2=O
> 99.5 µM | O=C(Nc1cc(Cl)cc([C@H](Nc2cccc(-c3nn[nH]n3)c2)C(=O)N[C@H]2CCOC2)c1)OCc1ccccc1
> 25 µM | Cc1c(C(=O)Nc2cc(C(=O)N3CCC(O)CC3)ccn2)cc(C2CC2)n1C
1.1 µM | OCC#C[C@H](Nc1ccc2c(c1)CNC2)c1cc(Cl)cc2[nH]ncc12
32.3 µM | O=C1OCc2ccc(NC(=O)c3cc(Cl)cc4[nH]ncc34)cc21
95.2 µM | O=C(Nc1cc(Cl)cc(-c2cn(C3CCCC3)nc2C(=O)O)c1)OCc1ccccc1
> 99.5 µM | O=C(c1cc(Cl)cc2[nH]ncc12)N1CC[C@]2(CCNC2)C1
0.423 µM | O=C(Nc1ccc2c(c1)CNC2)c1cc(Cl)cc2[nH]c(-c3nc4c(s3)CCC4)nc12
> 99.5 µM | CCn1c(=O)c(N2C[C@H]3C[C@@]3(C(F)F)C2)nc2ccccc21
> 25 µM | CCn1c(C)cc(C(=O)Nc2cc(CCCN)ccn2)c1C
5.55 µM | NCc1cccc(NC(=O)c2cc(Cl)cc(Cl)c2)c1
> 99.5 µM | NCc1ccccc1NC(=O)c1cc(Cl)cc(NC(=O)OCc2ccccc2)c1
25.2 µM | c1ccc2c(CN3CCC(c4c[nH]c5cccnc45)CC3)c[nH]c2c1
> 99.5 µM | CCn1c(=O)c(N2CC[C@]3(CCSC3)C2)nc2ccccc21
> 25 µM | O=C(Nc1ccc2[nH]ncc2c1)c1cc(F)cc2[nH]ncc12
